Source: patent publication US20260250318A1, “COMPOSITIONS AND METHODS FOR CROSSING THE BLOOD BRAIN BARRIER” (VOYAGER THERAPEUTICS, INC., priority 2022, published 2026)

Key:
Conditions in all cases: synthetic library passage 3, intravenous, relative to wild-type AAV9
brain [1] = experiment: NGS fold enrichment of synthetic library (passage 3) in C57Bl/6 mice, first cross-species screen; type: in vivo
Procedure, shortened: (§1)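 Fold enrichment versus wild-type AAV9 was derived by NGS of RT-PCR-amplified RNA from nervous tissue, collected e.g. 28 days after IV dosing […]. The library (passage 3) was given to two NHPs aged 2-4 years and to 6-8-week BALB/c and C57Bl/6 mice (n=3 each).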

[2] = tested on: brain, spinal cord, and DRG of the NHPs; experiment: NGS fold enrichment of synthetic library (passage 3) in NHPs, first cross-species screen; type: in vivo, cynomolgus macaques (Macaca fascicularis)
Procedure, shortened: as §1

brain [3] = experiment: NGS fold enrichment of synthetic library (passage 3) in BALB/c mice, first cross-species screen; type: in vivo
Procedure, shortened: as §1

[4] = RNA from brain of C57Bl/6 mice, NGS
[5] = RNA from spinal cord of NHPs, NGS
[6] = RNA from brain of BALB/c mice, NGS

Row | Sequence | Fold enrichment over AAV9 in the brain of Mice (C57Bl/6) (brain [1]; RNA NGS, brain of C57Bl/6 mice) [fold] | Fold enrichment over AAV9 in the brain of NHPs ([2]; RNA NGS, brain of NHPs) [fold] | Fold enrichment over AAV9 in the spinal cord of NHPs ([2]; RNA NGS, spinal cord of NHPs) [fold] | Fold enrichment over AAV9 in the brain of Mice (BALB/c) (brain [3]; RNA NGS, brain of BALB/c mice) [fold] | Fold enrichment over AAV9 in the brain of Mice (C57Bl/6) (brain [1]; [4]) [fold] | Fold enrichment over AAV9 in the brain of NHPs ([2]; RNA from brain of NHPs, NGS) [fold] | Fold enrichment over AAV9 in the spinal cord of NHPs [2, 5] [fold] | Fold enrichment over AAV9 in the brain of Mice (BALB/c) (brain [3]; [6]) [fold]
1 | GRGQIYSTGGNQQT | 1.329 | 2.210 | 11.629 | 0.743 | – | – | – | –
2 | GRGQNQQHTGLATT | 1.134 | 1.650 | 6.174 | 0.691 | – | – | – | –
3 | GRGQNVSSVHRQQT | 1.206 | 5.404 | 0.000 | 0.691 | – | – | – | –
4 | GRGQVVSTHQNQQT | 0.931 | 1.607 | 3.318 | 0.561 | – | – | – | –
5 | GRGVITSSGQNHQT | 1.656 | 2.004 | 0.864 | 0.669 | – | – | – | –
6 | GRGVQQKLQQNQQT | 1.974 | 1.817 | 0.000 | 0.823 | – | – | – | –
7 | GRHLVTASGQNQQT | 0.648 | 1.411 | 2.885 | 0.404 | – | – | – | –
8 | GRLSNAHGGQNQQT | – | – | – | – | 1.036 | 1.245 | 0.839 | 0.725
9 | GRMFSLGSGQNQQT | 1.630 | 1.836 | 8.429 | 1.174 | – | – | – | –
10 | GRTDSHTSGQNQQT | 1.299 | 2.913 | 1.510 | 0.704 | – | – | – | –
11 | GRVLHSHAGQNQQT | 1.294 | 2.513 | 0.826 | 0.908 | – | – | – | –
12 | GSAAMSVRGQNQQT | 0.202 | 1.029 | 2.386 | 0.287 | – | – | – | –
13 | GSAGISPSGQNQQT | 0.784 | 1.797 | 1.812 | 0.622 | – | – | – | –
14 | GSAQVSMVGQNQQT | 0.500 | 1.601 | 1.332 | 0.285 | – | – | – | –
15 | GSDFLGTHGQNQQT | 1.038 | 3.171 | 0.348 | 0.750 | – | – | – | –
16 | GSDGKMHRGQNQQT | – | – | – | – | 1.826 | 1.227 | 0.000 | 0.776

Row | Sequence | Fold enrichment over AAV9 in the brain of Mice (C57Bl/6) (brain [1]; RNA NGS, brain of C57Bl/6 mice) [fold] | Fold enrichment over AAV9 in the brain of NHPs ([2]; RNA NGS, brain of NHPs) [fold] | Fold enrichment over AAV9 in the spinal cord of NHPs ([2]; RNA NGS, spinal cord of NHPs) [fold] | Fold enrichment over AAV9 in the brain of Mice (BALB/c) (brain [3]; RNA NGS, brain of BALB/c mice) [fold] | Fold enrichment over AAV9 in the brain of Mice (C57Bl/6) (brain [1]; [4]) [fold] | Fold enrichment over AAV9 in the brain of NHPs ([2]; RNA from brain of NHPs, NGS) [fold] | Fold enrichment over AAV9 in the spinal cord of NHPs [2, 5] [fold] | Fold enrichment over AAV9 in the brain of Mice (BALB/c) (brain [3]; [6]) [fold]
17 | GSDHSHRGGQNQQT | – | – | – | – | 0.818 | 1.174 | 0.504 | 0.331
18 | GSDQNQQLGYSKQT | – | – | – | – | 0.853 | 1.283 | 0.000 | 0.660
19 | GSDQNQQTMSSTRT | 1.306 | 1.003 | 2.428 | 0.835 | – | – | – | –
20 | GSDQNQRLTSSMQT | 0.875 | 1.479 | 0.164 | 0.670 | – | – | – | –
21 | GSDQSKRGDSNQQT | – | – | – | – | 0.479 | 1.225 | 0.639 | 0.267
22 | GSEQTRQRGQNQQT | – | – | – | – | 0.574 | 1.333 | 2.172 | 0.815
23 | GSEQTRQSGQNQQT | – | – | – | – | 0.734 | 1.321 | 0.514 | 0.900
24 | GSEYGHKSGQNQQT | 5.198 | 6.308 | 2.750 | 5.332 | – | – | – | –
25 | GSFSMGYGGQNQQT | – | – | – | – | 1.908 | 1.393 | 18.476 | 1.030
26 | GSFSMHTHGQNQQT | 1.027 | 2.535 | 0.118 | 0.693 | – | – | – | –
27 | GSFYPSSTGQNQQT | 0.420 | 2.047 | 2.374 | 0.277 | – | – | – | –
28 | GSGAITHMPQNQQT | 0.647 | 1.695 | 1.681 | 0.411 | – | – | – | –
29 | GSGAMPSHGQNQQT | 1.142 | 1.915 | 0.000 | 0.912 | – | – | – | –
30 | GSGASESHRQNQQT | – | – | – | – | 0.325 | 1.350 | 0.850 | 0.313
31 | GSGASRMSIQNQQT | 0.801 | 1.045 | 0.111 | 0.417 | – | – | – | –
